“Also recorded” adds a separate entry of the source. Ends that are not written are not given here.
Tests used:
mAb 4F11(G1) [1] = experiment: Western blot of purified recombinant thioredoxin fusion proteins probed with mAb 4F11; format: binding, mouse; details: for reactivity with mAb 4F11 in Western blot: purified thioredoxin fusion protein separated by SDS-PAGE
Description: MAb 4F11 was produced as described (Lee et al., “Molecular Characterization of KEX1, a Kexin-Like Protease in Mouse Pneumocystis carinii,” Gene 242:141-150 (2000), which is hereby incorporated by reference in its entirety). For colony immunoscreens and P. carinii immunofluorescence assays (IFAs), mAb 4F11 IgM ascites fluid was used at a 1:5000 dilution. For enzyme-linked immunosorbent assays (ELISA) and Western blots of purified recombinant proteins an IgG1 switch-variant of mAb 4F11(G1) (Gigliotti et al., “Passive Intranasal Monoclonal Antibody Prophylaxis Against Murine Pneumocystis carinii Pneumonia,” Infect. Immun. 70:1069-1074 (2002), which is hereby incorporated by reference in its entirety) was prepared by saturated ammonium sulfate precipitation of tissue culture supernatant and used at the indicated dilutions. MAb 2B5 is an IgG1 that recognizes a mouse P. carinii gpA (Gigliotti et al., “Antibody-Mediated Shift in the Profile of Glycoprotein A Phenotypes Observed in a Mouse Model of Pneumocystis carinii Pneumonia,” Infect. Immun. 64:1892-1899 (1996), which is hereby incorporated by reference in its entirety) and was used as a negative control in S. pneumoniae immunoblots and IFAs. MAb 1C7 is an anti-mouse P. carinii IgM used as an isotype control in IFAs against P. carinii derived from different hosts. Pooled hyperimmune sera against mouse P. carinii was obtained as described previously (Gigliotti et al., “Development of Murine Monoclonal Antibodies to Pneumocystis carinii,” J. Infect. Dis. 154:315-322 (1986), which is hereby incorporated by reference in its entirety).
To confirm reactivity of E. coli pSCREEN transformants with mAb 4F11, 5 mL overnight cultures were pelleted and resuspended in 200 μL of 1× Laemmli SDS running/sample buffer+5% β-mercaptoethanol, and 20 μL samples were separated on NuPAGE Bis-Tris 4-12% gels (Invitrogen) by SDS-PAGE. S. pneumoniae from blood agar plates was grown in 5 mL THY overnight, 1 mL aliquots were pelleted, resuspended in 200 μL 1× sample buffer, and 20 μL were resolved by SDS-PAGE. Purified recombinant protein was suspended in sample buffer in equal concentrations and separated as described for cell lysates. Western blots were performed as previously described (Lee et al., “Molecular Characterization of KEX1, a Kexin-Like Protease in Mouse Pneumocystis carinii,” Gene 242:141-150 (2000), which is hereby incorporated by reference in its entirety).
Production of 6×His-tagged thioredoxin fusion proteins using the pBADTHIO expression system in E. coli was performed following the manufacturer's instructions. Briefly, overnight cultures were diluted 1:40 in fresh LB+100 μg/mL ampicillin and grown at 37° C. with shaking to absorbance at 600 nm of approximately 0.5. For fusion protein induction, arabinose was added to a final concentration of 0.02% and cultures were grown an additional 5 hr at 37° C. with shaking. Cells were pelleted by centrifugation at 1000×g then resuspended in ⅕ original culture volume with lysis buffer (50 mM sodium phosphate, 6 M guanidine-HCl, 300 mM NaCl) and vortexed vigorously. Debris was pelleted by centrifugation at 10,000×g at 4° C. The supernatants were passed over a TALON affinity resin column (BD Biosciences, Palo Alto, Calif.) that had been pre-equilibrated with lysis buffer. The columns were then washed twice with 10 mL 50 mM sodium phosphate, 300 mM NaCl. The fusion proteins were eluted with 2 mL buffer containing 50 mM sodium phosphate, 300 mM NaCl, and 150 mM imidazole. The eluted protein was dialyzed overnight against PBS at 4° C. and concentrated by vacuum centrifugation. Protein concentrations were determined using a BCA microwell assay kit (Pierce, Rockford, Ill.).

mAb 4F11(G1) [2] = experiment: ELISA of epitope-thioredoxin fusion constructs using mAb 4F11(G1); format: binding, mouse
Procedure: (§1) Purified recombinant protein at a concentration of 10 μg/mL in 50 mM carbonate-bicarbonate buffer pH 9.5+0.1% SDS was used to coat Costar ELISA plates (Corning Incorporated, Corning, N.Y.) 16-20 hr at 37° C. The plates were blocked with 3% BSA-TBST for 1 hr at 4° C. Primary antibody was added in two-fold serial dilutions in 3% BSA-TBST and incubated at 4° C. for 1 hr. Goat anti-mouse IgG+IgM-alkaline phosphatase conjugate secondary antibody was added at 1:5000 dilution in BSA-TBST for one hr at 4° C. Blue Phos substrate (KPL, Gaithersburg Md.) was added for 30 min, color development was stopped with 2.5% EDTA, and absorbance was read at 655 nm using a Benchmark microplate reader (Bio-Rad).
Experimental ELISA results were statistically compared to the control values using a two-tailed Student's t test. Results were considered significant if p≦0.05.

[3] = target: 4F11(G1) binding against plate-bound sonicated mouse P. carinii; experiment: Competitive (inhibition) ELISA: synthetic peptides as soluble competitors for 4F11(G1) binding to plate-bound sonicated mouse P. carinii
Description: FIGS. 5A-F show the analysis of purified recombinant epitope-thioredoxin fusion proteins. FIG. 5A is a gel stained with Coomassie Blue. FIG. 5B is a Western blot using mAb 4F11(G1). FIG. 5C is a Western blot using anti-V5 epitope tag mAb. FIG. 5D is an ELISA of epitope-thioredoxin fusion constructs using mAb 4F11(G1). Results are plotted as the mean±standard error of triplicate experiments. […] Results are plotted as the mean±standard deviation of triplicate experiments. […] Results are plotted as the mean±standard deviation of triplicate experiments. The dashed line indicates the mean absorbance at 655 nm with no inhibitor and a 4F11(G1) dilution of 1:3200.
(§2) Mouse P. carinii Kexin 777-787 (RPAPPKPTPQP, SEQ ID NO: 56) and Kexin 131-142 (SGDTGNVNSGEK, SEQ ID NO: 57) peptides were purchased from Alpha Diagnostics (San Antonio, Tex.). ELISA experiments using the synthetic peptides were performed as described above, using 10 μg peptide/mL in carbonate-bicarbonate buffer to coat the plates. For competitive ELISA studies peptides were incubated at three fold dilutions with a starting concentration of 100 μg/mL for 2 hr with a 1:3200 dilution of mAb 4F11 at 4° C. to reach equilibrium. Mouse P. carinii sonicates in carbonate-bicarbonate buffer were used to coat ELISA plates at the equivalence of 4×10^4 cysts per well overnight at 4° C. The peptide-antibody mixtures, or antibody alone at 1:3200 dilution, were used as the primary antibody in the ELISA following the above protocol.

mAb 4F11(G1) [4] = experiment: ELISA of synthetic P. carinii peptides using mAb 4F11(G1); format: binding, mouse; details: 10 μg peptide/mL coat, no fusion partner
Procedure: as §1
as §2, with “The peptide-antibody mixtures, or antibody alone at 1:3200 dilution, were used as the primary antibody in the ELISA following the above protocol.” left out

[5] = test system: hyperimmune sera from mice immunized with whole P. carinii; experiment: Western blot of A12 fusion protein with hyperimmune sera from P. carinii-immunized mice; format: binding, mouse
Description: MAb 4F11 was produced as described (Lee et al., “Molecular Characterization of KEX1, a Kexin-Like Protease in Mouse Pneumocystis carinii,” Gene 242:141-150 (2000), which is hereby incorporated by reference in its entirety). For colony immunoscreens and P. carinii immunofluorescence assays (IFAs), mAb 4F11 IgM ascites fluid was used at a 1:5000 dilution. For enzyme-linked immunosorbent assays (ELISA) and Western blots of purified recombinant proteins an IgG1 switch-variant of mAb 4F11(G1) (Gigliotti et al., “Passive Intranasal Monoclonal Antibody Prophylaxis Against Murine Pneumocystis carinii Pneumonia,” Infect. Immun. 70:1069-1074 (2002), which is hereby incorporated by reference in its entirety) was prepared by saturated ammonium sulfate precipitation of tissue culture supernatant and used at the indicated dilutions. MAb 2B5 is an IgG1 that recognizes a mouse P. carinii gpA (Gigliotti et al., “Antibody-Mediated Shift in the Profile of Glycoprotein A Phenotypes Observed in a Mouse Model of Pneumocystis carinii Pneumonia,” Infect. Immun. 64:1892-1899 (1996), which is hereby incorporated by reference in its entirety) and was used as a negative control in S. pneumoniae immunoblots and IFAs. MAb 1C7 is an anti-mouse P. carinii IgM used as an isotype control in IFAs against P. carinii derived from different hosts. […]

[6] = at lower mAb 4F11 dilutions, plate coated 10 μg/mL

## E46PRPQPTS53 (EPRPQPTS; not fully specified; printed as E46PRPQPTS53) [A1246-53]
mAb 4F11(G1) [1]
  reactivity with mAb 4F11 in Western blot: do not react with mAb 4F11

## E54PQPQPAP61 (EPQPQPAP; not fully specified; printed as E54PQPQPAP61) [A1254-61]
mAb 4F11(G1) [1]
  reactivity with mAb 4F11 in Western blot: do not react with mAb 4F11

## K62PRPQPTSKPRPQPTP77 (KPRPQPTSKPRPQPTP; not fully specified; printed as K62PRPQPTSKPRPQPTP77) [A1262-77]
mAb 4F11(G1) [2]; at 1:800 or greater dilution
  ELISA reactivity to mAb 4F11: only background reactivity
mAb 4F11(G1) [2]; [6]
  ELISA reactivity with mAb 4F11: lower reactivity, but significantly higher than the thioredoxin fusion partner alone

## K70PRPQPTP77 (KPRPQPTP; not fully specified; printed as K70PRPQPTP77) [A1270-77]
mAb 4F11(G1) [1]
  reactivity with mAb 4F11 in Western blot: positive reactivity

## K856PAPKPTP863 (KPAPKPTP; not fully specified; printed as K856PAPKPTP863) [Kexin856-863]
mAb 4F11(G1) [1]
  reactivity with mAb 4F11 in Western blot: positive reactivity

## K856PAPKPTPPKPAPKPAP872 (KPAPKPTPPKPAPKPAP; not fully specified; printed as K856PAPKPTPPKPAPKPAP872) [Kexin856-872]
mAb 4F11(G1) [2]; [6]
  ELISA reactivity with mAb 4F11: highest reactivity

## K865PAPKPAP872 (KPAPKPAP; not fully specified; printed as K865PAPKPAP872) [Kexin865-872]
mAb 4F11(G1) [1]
  reactivity with mAb 4F11 in Western blot: positive reactivity

## R777PAPPKPTPQP787 [Kexin777-787]
mAb 4F11(G1) [1]; 1 μg purified protein
  binding with mAb 4F11 compared with Kexin856-872, based on size and intensity of the Western blot band: enhanced binding
mAb 4F11(G1) [2]; at higher mAb 4F11 dilutions
  ELISA reactivity with mAb 4F11: greater reactivity with mAb 4F11 than did the original 17mer epitope
mAb 4F11(G1) [2]; [6]
  ELISA reactivity with mAb 4F11: highest reactivity
[3]; 4F11(G1) diluted 1:3200
  50% inhibition of binding of mAb 4F11 to native P. carinii antigens: 150 ng/mL
  concentration that completely blocks binding of mAb 4F11 to native P. carinii antigens: 1 µg/mL

## RPAPPKPTPQP [Kex777-787]
mAb 4F11(G1) [4]
  ELISA reactivity of synthetic peptide to mAb 4F11: high reactivity

## SGDTGNVNSGEK [Kex131-142, reference compound]
mAb 4F11(G1) [4]
  ELISA reactivity of synthetic peptide to mAb 4F11: did not react
[3]; at the highest concentration tested
  inhibition of binding of mAb 4F11 to native P. carinii antigens: no inhibition

## thioredoxin fusion partner: thioredoxin fusion partner alone, negative control for the fusion constructs [reference compound]
mAb 4F11(G1) [1]
  reactivity with mAb 4F11 in Western blot: does not react with mAb 4F11; also recorded: did not react with mAb 4F11
mAb 4F11(G1) [1]; listed as fusion partner
  reactivity with mAb 4F11 in Western blot: did not react with mAb 4F11

B1: A121-142: truncated A12 molecule, residues 1-142 of SEQ ID NO: 5, expressed as thioredoxin fusion protein (protein)
chain: TNISEPALPDKDPQPTSSPQPKPRPRPRPQPQPHPHPKPQPQPTPEPQPQPAPEPRPQPTSKPRPQPTSKPRPQPTPEPRPLPVPGPGPLPVPGPRPQPQPQPQPQPQPQPQPQPQPQPQPQPQPQPQPQPKPQPPSQSTSE
modifications: thioredoxin fusion partner
mAb 4F11(G1) [1]
  reactivity with mAb 4F11 in Western blot: reacted with mAb 4F11

B2: URSP2 PspA: recombinant thioredoxin fusion protein containing the α-helical domain, clade defining region and proline-rich repeat region of URSP2 PspA (protein)
chain: EKELKEIDESDSEDYIKEGLRAPLQSKLDAKKAKLSKLEELSDKIDELDAEIAKLEKDVEDFKNSDGEQAEQYLVAAKKDLDAKKAELENTEADLKKAVDEPETPAPAPKPAPAPAPTPEAPAPAPKPAPAPKPAPAPAPTPEAPAPAPKPAPAPKPAPAPAPTPEAPAPAPKPAPAPRPAPAPKPAPDPKP
modifications: left off: large carriers
mAb 4F11(G1) [1]
  reactivity with mAb 4F11 in Western blot: shown to react with mAb 4F11

B3: A121-82: truncated A12 molecule, residues 1-82 of SEQ ID NO: 5, expressed as thioredoxin fusion protein (protein)
chain: TNISEPALPDKDPQPTSSPQPKPRPRPRPQPQPHPHPKPQPQPTPEPQPQPAPEPRPQPTSKPRPQPTSKPRPQPTPEPRPL
modifications: thioredoxin fusion partner
mAb 4F11(G1) [1]
  reactivity with mAb 4F11 in Western blot: reacted with mAb 4F11
[5]
  reactivity with hyperimmune sera in Western blot: reacted with hyperimmune sera
